Data set [1] addresses T1, ATPase family AAA domain-containing protein 2 (Homo sapiens, UniProt Q6PL18).
T1 sequence (Q6PL18 whole entry): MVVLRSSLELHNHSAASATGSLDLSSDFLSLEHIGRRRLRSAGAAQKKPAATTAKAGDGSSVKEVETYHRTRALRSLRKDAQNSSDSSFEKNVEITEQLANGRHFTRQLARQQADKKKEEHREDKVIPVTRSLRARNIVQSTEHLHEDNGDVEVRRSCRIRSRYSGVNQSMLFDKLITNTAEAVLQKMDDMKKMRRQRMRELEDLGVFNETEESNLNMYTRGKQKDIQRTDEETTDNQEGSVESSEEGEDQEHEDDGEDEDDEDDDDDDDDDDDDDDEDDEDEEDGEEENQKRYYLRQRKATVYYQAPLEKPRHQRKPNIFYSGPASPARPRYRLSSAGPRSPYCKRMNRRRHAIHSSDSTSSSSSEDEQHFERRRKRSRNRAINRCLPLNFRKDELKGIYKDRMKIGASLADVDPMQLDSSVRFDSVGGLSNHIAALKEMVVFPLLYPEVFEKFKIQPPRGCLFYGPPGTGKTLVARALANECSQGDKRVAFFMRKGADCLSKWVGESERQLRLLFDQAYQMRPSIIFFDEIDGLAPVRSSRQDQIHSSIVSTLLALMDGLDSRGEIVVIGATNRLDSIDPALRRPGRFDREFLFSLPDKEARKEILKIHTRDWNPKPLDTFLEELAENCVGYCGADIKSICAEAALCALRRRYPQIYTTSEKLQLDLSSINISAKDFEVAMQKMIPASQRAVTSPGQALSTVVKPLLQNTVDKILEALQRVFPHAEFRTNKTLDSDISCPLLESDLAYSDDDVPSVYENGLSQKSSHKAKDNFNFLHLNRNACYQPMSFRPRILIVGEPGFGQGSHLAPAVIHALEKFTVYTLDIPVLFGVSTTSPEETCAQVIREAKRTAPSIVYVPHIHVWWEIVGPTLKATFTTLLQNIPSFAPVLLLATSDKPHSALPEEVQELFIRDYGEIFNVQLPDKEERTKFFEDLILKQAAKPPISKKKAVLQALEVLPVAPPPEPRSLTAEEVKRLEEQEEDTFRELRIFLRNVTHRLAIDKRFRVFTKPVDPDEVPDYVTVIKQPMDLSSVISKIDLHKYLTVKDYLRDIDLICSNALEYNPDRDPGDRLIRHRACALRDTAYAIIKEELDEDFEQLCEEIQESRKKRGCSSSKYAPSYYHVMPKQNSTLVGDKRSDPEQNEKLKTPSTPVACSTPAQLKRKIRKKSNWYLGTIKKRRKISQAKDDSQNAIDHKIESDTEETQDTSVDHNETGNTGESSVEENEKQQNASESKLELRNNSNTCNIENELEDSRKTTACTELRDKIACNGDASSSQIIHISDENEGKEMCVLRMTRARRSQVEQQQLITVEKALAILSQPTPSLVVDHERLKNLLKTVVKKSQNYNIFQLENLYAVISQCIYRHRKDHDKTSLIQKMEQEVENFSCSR
Put plainly: Inhibition of human ATAD2A (981 to 1108 residues) expressed in Escherichia coli BL21 after 1 hr by BROMOscan assay.

For a further data set, the target named is T2, Kv4.3/KChIP2 (Homo sapiens, UniProt Q9NS61+Q9UK17).
T2 sequence (Q9UK17 whole entry): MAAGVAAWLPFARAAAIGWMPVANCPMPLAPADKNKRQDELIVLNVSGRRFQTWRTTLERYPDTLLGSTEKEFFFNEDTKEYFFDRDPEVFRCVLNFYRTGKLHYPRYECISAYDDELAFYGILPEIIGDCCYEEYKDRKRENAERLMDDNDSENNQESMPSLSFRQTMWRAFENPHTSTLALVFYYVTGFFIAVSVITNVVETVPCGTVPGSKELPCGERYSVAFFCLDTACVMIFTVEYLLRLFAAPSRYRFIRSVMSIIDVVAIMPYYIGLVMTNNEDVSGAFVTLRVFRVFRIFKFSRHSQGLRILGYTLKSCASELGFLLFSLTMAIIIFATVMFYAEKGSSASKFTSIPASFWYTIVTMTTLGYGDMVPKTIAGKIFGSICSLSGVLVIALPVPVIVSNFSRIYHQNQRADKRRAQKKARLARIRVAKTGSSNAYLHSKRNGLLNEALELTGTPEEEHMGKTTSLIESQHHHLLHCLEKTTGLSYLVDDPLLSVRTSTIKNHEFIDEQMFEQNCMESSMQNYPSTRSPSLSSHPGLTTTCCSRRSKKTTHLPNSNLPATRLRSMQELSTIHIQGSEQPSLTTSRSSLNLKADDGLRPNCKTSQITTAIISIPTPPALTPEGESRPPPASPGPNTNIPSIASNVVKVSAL
T2 sequence (Q9NS61 whole entry): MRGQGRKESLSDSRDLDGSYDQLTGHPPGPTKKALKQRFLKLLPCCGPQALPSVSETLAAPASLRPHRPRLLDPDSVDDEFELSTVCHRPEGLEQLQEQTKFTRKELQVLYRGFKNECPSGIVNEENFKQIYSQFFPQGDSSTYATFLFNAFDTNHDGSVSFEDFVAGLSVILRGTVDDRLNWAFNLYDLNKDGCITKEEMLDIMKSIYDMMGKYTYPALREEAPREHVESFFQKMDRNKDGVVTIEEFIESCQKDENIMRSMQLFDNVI
Put plainly: Inhibition of Kv4.3/KChIP2 (unknown origin) at 30 uM. It is filed as protein-complex assay.

Where only a bound is given, the exact number is not on record here.

The IC50 is the concentration that inhibits the measured activity by half. A low value points to greater potency. By inhibition is commonly meant the share of the control response that was lost under treatment. Read a low inhibition as little suppression. As to `COc1cc(C#N)ccc1S(=O)(=O)Nc1ccc2c(c1)cc(C)c(=O)n2C`, the IC50 in data set [1] was greater than 100 µM. In addition, the inhibition at 30 µM against Kv4.3/KChIP2 was less than 40%.

For the origin of these results see ChEMBL document CHEMBL4028852, “Design of a Chemical Probe for the Bromodomain and Plant Homeodomain Finger-Containing (BRPF) Family of Proteins” (J Med Chem, 2017).
